Literature values, collected in patent US20240360061A1, “Synthetic Cannabinoid Compounds, Pharmaceutical Compositions, and Treatment Methods” (Miralogx LLC, priority 2022, published 2024).

How the values were obtained:
[1] = 2.5 to 5 mg THC, three patients
[2] = several clinical studies
[3] = oral THC 15 mg; compared with salbutamol, isoprenaline
[4] = Type-2 diabetes; cited from J. Cannabis Research (2020) 2:6

| SMILES | effect on pruritus due to liver diseases [1] | mood in reactive depression [2] | anti-asthmatic (bronchodilator) effect [3] | Homeostasis Model Assessment (HOMA2) of pancreatic β-cell function [4] | fasting plasma glucose [4] |
| --- | --- | --- | --- | --- | --- |
| CCCCCc1cc(O)c2c(c1)OC(C)(C)[C@@H]1CCC(C)=C[C@@H]21 [THC, tetrahydrocannabinol] | effective | improvement of mood | approximately correspond to those obtained with therapeutic doses of common bronchodilator drugs | – | – |
| CCCc1cc(O)c2c(c1)OC(C)(C)[C@@H]1CCC(C)=C[C@@H]21 [THCV, Δ9-Tetrahydrocannabivarin] | – | – | – | improve | significantly decrease |
